Reference: paper PMC2267855, “Site-directed mutagenesis of Arginine282 suggests how protons and peptides are co-transported by rabbit PepT1” (The International Journal of Biochemistry & Cell Biology, 2008)
Residue numbers refer to the chain shown, from its start. Where a SMILES comes first, the peptide text is derived from it.

Key:
Type in all cases: cell-based, rabbit
Settings in all cases: pHout 5.5, 0.4 μM [3H]-D-Phe-L-Gln
R282A-PepT1 = biological target: T1, R282A-PepT1 (Oryctolagus cuniculus, UniProt P36836, R282A); assay: Inhibition of [3H]-D-Phe-L-Gln uptake into Xenopus oocytes expressing R282A-PepT1 (competition, Ki)
T1 construct: expressed in transfected cells; host or cells: Xenopus laevis oocytes injected with cRNA
T1 sequence (P36836 1-707 R282A): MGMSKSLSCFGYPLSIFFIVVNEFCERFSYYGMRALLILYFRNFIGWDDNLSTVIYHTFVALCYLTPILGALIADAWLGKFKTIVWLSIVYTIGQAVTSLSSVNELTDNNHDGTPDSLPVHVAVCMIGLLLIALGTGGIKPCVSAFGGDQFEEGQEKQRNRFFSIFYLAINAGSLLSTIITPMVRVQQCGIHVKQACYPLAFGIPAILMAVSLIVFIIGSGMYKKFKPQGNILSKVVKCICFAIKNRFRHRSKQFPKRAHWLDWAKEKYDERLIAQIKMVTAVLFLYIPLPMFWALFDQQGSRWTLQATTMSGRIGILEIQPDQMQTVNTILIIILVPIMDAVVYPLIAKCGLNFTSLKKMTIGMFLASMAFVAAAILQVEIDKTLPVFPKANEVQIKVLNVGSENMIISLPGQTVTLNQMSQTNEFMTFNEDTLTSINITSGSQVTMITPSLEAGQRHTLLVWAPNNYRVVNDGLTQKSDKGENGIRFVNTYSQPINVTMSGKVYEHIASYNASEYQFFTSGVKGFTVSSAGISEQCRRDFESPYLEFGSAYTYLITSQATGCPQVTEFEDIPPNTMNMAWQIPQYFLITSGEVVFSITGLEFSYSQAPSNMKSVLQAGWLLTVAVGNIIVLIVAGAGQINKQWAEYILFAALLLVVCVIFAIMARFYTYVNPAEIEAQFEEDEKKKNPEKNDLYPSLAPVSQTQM
Description: (§1) Zero-trans uptake of [^3H]-D-Phe-L-Gln (17.4 Ci/mmole, custom synthesised, Cambridge Research Biochemicals, Stockton-on-Tees, UK) was performed as previously described ([Meredith, 2004]). Briefly, 5 oocytes were incubated in 100 μl of uptake medium (95 mM NaCl, 2 mM KCl, 1 mM CaCl2, 0.42 mM MgCl2, 10 mM Tris/Hepes pH 7.4 or Tris/Mes pH 5.5) with tracer (0.4 μM) [^3H]-D-Phe-L-Gln. After incubation, the oocytes were washed sequentially five times in 1 ml of ice-cold 120 mM NaCl solution, lysed individually with 100 μl 2% (w/v) SDS and liquid scintillation counted. As a control non-injected oocytes were also incubated in uptake medium with [^3H]-D-Phe-L-Gln as above.
(§2) The affinity of wild-type and mutant PepT1 were assessed by competition studies with 0.4 μM [^3H]-D-Phe-L-Gln and Gly-L-Gln present in the uptake medium in concentrations from 0 to 2 mM using the protocol above, and the Ki calculated using the method of [Deves and Boyd (1989)].

R282Q-PepT1 = biological target: T2, R282Q-PepT1 (Oryctolagus cuniculus, UniProt P36836, R282Q); assay: Inhibition of [3H]-D-Phe-L-Gln uptake into Xenopus oocytes expressing R282Q-PepT1 (competition, Ki)
T2 construct: expressed in transfected cells; host or cells: Xenopus laevis oocytes injected with cRNA
T2 sequence (P36836 1-707 R282Q): T1 sequence (P36836 1-707 R282A) with A282Q
Description: as §1, §2

R282H-PepT1 = biological target: T3, R282H-PepT1 (Oryctolagus cuniculus, UniProt P36836, R282H); assay: Inhibition of [3H]-D-Phe-L-Gln uptake into Xenopus oocytes expressing R282H-PepT1 (competition, Ki)
T3 construct: expressed in transfected cells; host or cells: Xenopus laevis oocytes injected with cRNA
T3 sequence (P36836 1-707 R282H): T1 sequence (P36836 1-707 R282A) with A282H
Description: as §1, §2

Ki (R282A-PepT1): 300 ± 170 µM | Ki (R282Q-PepT1): 460 ± 220 µM | Ki (R282H-PepT1): 300 ± 150 µM
SMILES: NCC(=O)N[C@@H](CCC(N)=O)C(=O)O [Gly-L-Gln] (H-Gly-Gln-OH)
